Reference: patent US20080248993A1, “Modified Beta Thymosin Peptides” (REGENERX BIOPHARMACEUTICALS, INC., priority 2005, published 2008)
Read-outs that look alike come from different tables or passages of the source.

Biological target: G-actin
Experiment: G-actin binding affinity (ultrafiltration of free and bound peptide, HPLC of the ultrafiltrate)
Protocol: Tests were conducted to determine the G-actin binding affinity of Tβ4^leu as compared to native Tβ4. The experiments were repeated twice and in triplicate, with the results shown below (averages from 3 experiments):
The lower values in the case of Tβ4 are caused by its sulfoxide. Tβ4 plus Tβ4-sulfoxide was determined by amino acid analysis. […] Thus the real concentration of Tβ4 in the tests are lower and the decrease of free Tβ4 is higher when compared to non-oxidized Tβ4. The decrease of free beta-thymosin was measured. G-actin bound Tβ4 and free Tβ4 were separated by ultrafiltration and the concentration of Tβ4 in the ultrafiltrate was measured by HPLC. The procedure utilized is described in Huff et al., FEPS Letters, 414:39-44 (1997).

[1] = First determination, averages from 3 experiments, read-out: Kd, G-actin binding
[2] = Second determination, averages from 3 experiments, read-out: Kd, G-actin binding

| Kd [1] [nM] | Kd [2] [nM] | G-actin binding, in words (qualitative statement) | Kd (Example 8, comparison of Tβ4-sulfone with Tβ4 and Tβ4-sulfoxide, read-out: Kd value of the complex with G-actin) [nM] | Substance |
| --- | --- | --- | --- | --- |
| 1360 | 990 | substantial actin-binding activity |  | Tβ4^leu: Thymosin β4 with leucine substituted for methionine at position 6 (SDKPDLAEIEKFDKSKLKKTETQEKNPLPSKETIEQEKQAGES; not fully specified; Thymosin beta-4; UniProt P62328 2-44, looked up, variant M6L) |
| 1280 | 540 |  | 1000 | Tβ4: Native 43 amino acid, 4.9 kDa polypeptide with methionine at position 6; comparator |
